Test results as given in US20220348590A1, “CYCLOOXYGENASE-2 INHIBITORS AND USES THEREOF” (The Board Institute, Inc., priority 2019, published 2022).
≈ marks a conversion by molar mass, not a printed value. Like-named read-outs stand apart in the source and are kept apart here.

What was measured:
[1] = molecular target: T1, human recombinant COX2 (hCOX2) (UniProt P35354); assay: LCMS-based COX2 enzymatic inhibition assay (PGE2 quantification); type: biochemical; design: COX2 2 minutes pge2/pge2d4 area ratio Avg; other: 2 minutes; readout pge2/pge2d4 area ratio; average; COX2 2 minutes pge2/pge2d4 area ratio Avg; LLE; average LLE; COX2 2 minutes pge2 area (counts) Avg; readout pge2 area (counts); other: 2 min; "ovine COX2 (oCOX2), human recombinant COX2 (hCOX2)"; conditions: for COX2 2 minutes pge2/pge2d4 area ratio Avg. LLE / COX2 2 minutes pge2 area (counts) Avg. LLE / COX2 10 minutes pge2 area (counts) Avg. LLE / COX2 30 minutes pge2 area (counts) Avg. LLE: average LLE; for IC50: average
T1 sequence (P35354 1-604): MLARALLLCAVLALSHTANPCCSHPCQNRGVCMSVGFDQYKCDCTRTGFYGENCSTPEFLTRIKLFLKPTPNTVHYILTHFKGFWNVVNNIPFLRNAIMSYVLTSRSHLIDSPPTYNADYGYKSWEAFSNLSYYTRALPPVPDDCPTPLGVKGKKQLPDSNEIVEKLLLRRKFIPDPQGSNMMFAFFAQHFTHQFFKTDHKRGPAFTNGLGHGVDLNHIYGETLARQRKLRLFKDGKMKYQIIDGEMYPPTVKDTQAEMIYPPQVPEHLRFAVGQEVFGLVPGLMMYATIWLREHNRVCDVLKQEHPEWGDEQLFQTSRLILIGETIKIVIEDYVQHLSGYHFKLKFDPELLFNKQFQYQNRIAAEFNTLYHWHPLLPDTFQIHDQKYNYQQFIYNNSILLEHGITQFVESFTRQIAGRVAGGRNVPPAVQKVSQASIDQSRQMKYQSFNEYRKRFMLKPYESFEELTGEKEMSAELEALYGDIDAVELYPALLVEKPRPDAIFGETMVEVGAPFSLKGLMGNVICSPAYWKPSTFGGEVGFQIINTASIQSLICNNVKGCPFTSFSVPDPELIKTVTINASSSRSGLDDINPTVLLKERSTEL
Procedure, shortened: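 PGE2 formed from arachidonic acid (final 5 μM, 2 min) was measured by LC-MS-MS against DMSO controls. Enzyme (oCOX-1 0.1 μg or hCOX2 0.2 μg) with hematin/epinephrine cofactors at pH 8.0 was given 10 min at 37 °C with compound first. Twelve-point curves run three times gave IC50.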

PBS Solubility (no DMSO) = type: physicochemical; conditions: aqueous buffer, thermodynamic from solid, average
[2] = mouse plasma protein binding (PPB) assay; type: in vitro ADME; conditions: average, read-out: Mouse Plasma Protein Binding % Bound Avg (converted)
Procedure: (§1) We have adapted a previously reported cyclooxygenase enzymatic assay utilizing LCMS quantification of PGE2 as the product of COX-1 and COX2 catalyzed conversion of arachidonic acid to evaluate the binding properties of newly synthesized ligands [Cao, 2011]. These optimized and miniaturized (384-well plates) LCMS-based COX-1 and COX2 enzymatic assays enabled us to quickly evaluate newly synthesized ligands for COX2 binding affinity and selectivity vs COX-1. Using a shorter ligand-enzyme incubation time in the LCMS assay (2 minutes vs 10 minutes) also permitted us to prioritize ligands with faster binding kinetics. Considering the relatively slow on-rate kinetics of known coxibs, due to their 3-step binding mechanism [Marnett, 2009], we believe that optimizing this critical parameter will be key to the successful development of a COX2 PET tracer. Using these enzymatic assays, we have evaluated>200 newly synthesized ligands against COX2 and >20 ligands against COX-1. Another critical property necessary for a good PET radiotracer is to have low non-specific binding (NSB) to increase the free fraction and maximize the signal to noise ratio. This property can be evaluated using in-vitro protein binding assays, and we have now evaluated>50 newly synthesized ligands in mouse, rat and human plasma protein binding (PPB) assays as well as >15 ligands in a mouse brain protein binding (BPB) assay.

[3] = human plasma protein binding (PPB) assay; type: in vitro ADME; conditions: average, read-out: Human Plasma Protein Binding % Bound Avg (converted)
Procedure: as §1

[4] = rat plasma protein binding (PPB) assay; type: in vitro ADME; conditions: average, read-out: Rat Plasma Protein Binding % Bound Avg (converted)
Procedure: as §1

[5] = Rat Plasma Protein Stability (% Remaining); type: in vitro ADME; conditions: average
[6] = Human Plasma Protein Stability (% Remaining); type: in vitro ADME; conditions: average
[7] = 2 minutes, readout pge2/pge2d4 area ratio
[8] = 2 minutes, readout pge2/pge2d4 area ratio, read-out: COX2 2 minutes pge2/pge2d4 area ratio Avg. IC50
[9] = 2 minutes, readout pge2 area (counts)
[10] = 2 minutes, readout pge2 area (counts), read-out: COX2 2 minutes pge2 area (counts) Avg. IC50
[11] = 10 minutes, readout pge2 area (counts)
[12] = 10 minutes, readout pge2 area (counts), read-out: COX2 10 minutes pge2 area (counts) Avg. IC50
[13] = 30 minutes, readout pge2 area (counts)
[14] = 30 minutes, readout pge2 area (counts), read-out: COX2 30 minutes pge2 area (counts) Avg. IC50

SMILES | COX2 2 minutes pge2/pge2d4 area ratio Avg. LLE [1, 7] | IC50 [1, 8] | COX2 2 minutes pge2 area (counts) Avg. LLE [1, 9] | IC50 [1, 10] | solubility (PBS Solubility (no DMSO)) | fraction unbound [2] | fraction unbound [3] | fraction unbound [4] | Rat Plasma Protein Stability % Remaining Avg [5] | Human Plasma Protein Stability % Remaining Avg [6] | COX2 10 minutes pge2 area (counts) Avg. LLE [1, 11] | IC50 [1, 12] | COX2 30 minutes pge2 area (counts) Avg. LLE [1, 13] | IC50 [1, 14]
CS(=O)(=O)c1ccc(-c2nc(NCc3cccs3)cc3ccoc23)cc1 [Compound 2] | 3.981 | 5.13 nM | 3.975 | 5.45 nM | 0.31 µM (≈ 0.119 µg/mL) | 0.004 | 0.003 | 0.009 | 98% | 99% | – | – | – | –
CS(=O)(=O)c1ccc(-c2ccc(F)c(NCc3ccco3)n2)cc1 [Compound 15] | 5.1257 | 8.91 nM | 5.098 | 9.62 nM | 4.5 µM (≈ 1.56 µg/mL) | – | 0.022 | 0.02 | 127% | 108% | – | – | – | –
CS(=O)(=O)c1ccc(-c2cccc(OCc3ccoc3)n2)cc1 [Compound 16] | 4.9079 | 9.12 nM | 4.932 | 8.71 nM | 10 µM (≈ 3.29 µg/mL) | 0.011 | 0.049 | 0.031 | 97.9% | 121% | – | – | – | –
COc1ncc(NCc2cccs2)nc1-c1ccc(S(C)(=O)=O)cc1 [Compound 29] | 5.399 | 14.9 nM | 5.474 | 14.5 nM | 2.8 µM (≈ 1.05 µg/mL) | 0.025 | 0.016 | 0.019 | 114.5% | 93.9% | – | – | – | –
CS(=O)(=O)c1ccc(-c2ccc(F)c(NCc3ccoc3)n2)cc1 [Compound 33] | 4.757 | 16.4 nM | 4.796 | 15.1 nM | 0.64 µM (≈ 0.222 µg/mL) | – | 0.029 | 0.025 | 128% | 100% | – | – | – | –
CS(=O)(=O)c1ccc(-c2cc(F)cc(NCc3ccoc3)n2)cc1 [Compound 34] | 4.826 | 16.4 nM | 4.752 | 18.3 nM | 12 µM (≈ 4.16 µg/mL) | – | 0.027 | 0.025 | 115% | 100% | – | – | – | –
COc1ncc(NCc2ccoc2)nc1-c1ccc(S(C)(=O)=O)cc1 [Compound 44] | 5.722 | 19.6 nM | 5.725 | 20.1 nM | 28 µM (≈ 10.1 µg/mL) | 0.045 | – | 0.044 | 104.6% | – | – | – | – | –

The remaining lines, values ahead:

COX2 2 minutes pge2/pge2d4 area ratio Avg. LLE [1, 7] | IC50 [1, 8] | COX2 2 minutes pge2 area (counts) Avg. LLE [1, 9] | IC50 [1, 10] | solubility (PBS Solubility (no DMSO)) | fraction unbound [2] | fraction unbound [3] | fraction unbound [4] | Rat Plasma Protein Stability % Remaining Avg [5] | Human Plasma Protein Stability % Remaining Avg [6] | COX2 10 minutes pge2 area (counts) Avg. LLE [1, 11] | IC50 [1, 12] | COX2 30 minutes pge2 area (counts) Avg. LLE [1, 13] | IC50 [1, 14] | SMILES
4.864 | 3.27 nM | 4.806 | 3.66 nM | 1.1 µM (≈ 0.38 µg/mL) | 0.004 | 0.002 | 0.006 | 100% | 94% | – | – | – | – | CS(=O)(=O)c1ccc(-c2cccc(OCc3cccs3)n2)cc1 [Compound 1, 2-(4-methanesulfonylphenyl)-6-[(thiophen-2-yl)methoxy]pyridine]
5.172 | 8.81 nM | 5.203 | 9.37 nM | 6.1 µM (≈ 2.11 µg/mL) | 0.022 | 0.02 | 0.024 | 104% | 118% | – | – | – | – | CS(=O)(=O)c1ccc(-c2cc(F)cc(NCc3ccco3)n2)cc1 [Compound 14]
4.653 | 9.62 nM | 4.644 | 9.92 nM | 1.3 µM (≈ 0.487 µg/mL) | 0.033 | 0.022 | 0.047 | 100% | 95% | – | – | – | – | COc1ccc(NCc2cccs2)nc1-c1ccc(S(C)(=O)=O)cc1 [Compound 17]
5.643 | 10.2 nM | 5.681 | 9.01 nM | 5.8 µM (≈ 2.01 µg/mL) | 0.02 | 0.015 | 0.015 | 91.1% | 92.4% | 6.3861 | 1.5 nM | – | – | CS(=O)(=O)c1ccc(-c2cncc(OCc3cccs3)n2)cc1 [Compound 19]
4.818 | 10.9 nM | 4.716 | 13.9 nM | 18 µM (≈ 6.16 µg/mL) | – | 0.026 | 0.042 | 100% | 99% | – | – | – | – | Cc1occc1CNc1cccc(-c2ccc(S(C)(=O)=O)cc2)n1 [Compound 21]
4.592 | 11.4 nM | 4.619 | 10.7 nM | 24 µM (≈ 8.31 µg/mL) | – | 0.028 | 0.046 | 104% | 97% | – | – | – | – | CS(=O)(=O)c1ccc(-c2cccc(NCc3ccc(F)o3)n2)cc1 [Compound 23]
– | 11.7 nM | – | 10.3 nM | 2.1 µM (≈ 0.723 µg/mL) | 0.016 | 0.019 | 0.025 | 105.1% | 100% | – | – | – | – | CS(=O)(=O)c1ccc(-c2cccc(NCc3cccs3)n2)cc1 [Compound 24]
4.261 | 22.8 nM | 4.341 | 20 nM | – | 0.031 | – | – | – | – | 4.996 | 5 nM | 5.9869 | 0.416 nM | COc1cc(NCc2cccs2)nc(-c2ccc(S(C)(=O)=O)cc2)c1 [Compound 50]
5.067 | 76 nM | 5.168 | 61.6 nM | – | – | – | – | – | – | 6.195 | 5.57 nM | 6.4321 | 2.74 nM | CS(=O)(=O)c1ccc(-c2cncc(NCc3cccs3)n2)cc1 [Compound 98]
